Measurements from ChEMBL document CHEMBL1255475, “Mutant prevention concentrations of four carbapenems against gram-negative rods” (2010).
In brackets after ≈: the same amount, converted by molar mass.

Assays:
Format in all cases: functional
Pseudomonas aeruginosa [1] = assay: Ratio of mutant prevention concentration to minimum Inhibitory concentration for Pseudomonas aeruginosa P337
Pseudomonas aeruginosa [2] = assay: Ratio of mutant prevention concentration to minimum Inhibitory concentration for Pseudomonas aeruginosa P334
Klebsiella pneumoniae = assay: Antibacterial activity against beta-lactamase-negative Klebsiella pneumoniae E417 after 24 hrs by agar dilution method; conditions: E417, 24 h
Acinetobacter baumannii = assay: Antibacterial activity against Acinetobacter baumannii A898 after 24 hrs by agar dilution method; conditions: A898, 24 h

SMILES | Ratio (Pseudomonas aeruginosa [1]) | Ratio (Pseudomonas aeruginosa [2]) | MIC (Klebsiella pneumoniae) | MIC (Acinetobacter baumannii)
C[C@@H](O)[C@H]1C(=O)N2C(C(=O)O)=C(S[C@@H]3CN[C@H](CNS(N)(=O)=O)C3)[C@H](C)[C@H]12 [DORIPENEM] | 8 | >16 | – | –
C[C@@H](O)[C@H]1C(=O)N2C(C(=O)O)=C(SCCNC=N)C[C@H]12 [IMIPENEM ANHYDROUS] | – | – | 0.5 µg/mL (≈ 1.67 µM) | 1 µg/mL (≈ 3.34 µM)
